According to US20210070748A1, “INHIBITORS OF BRUTONS TYROSINE KINASE” (Pharmacyclics LLC, priority 2015, published 2021):

Tests used:
Assay type in all cases: biochemical
[1] = biological target: T1, TXK (Homo sapiens, UniProt P42681); experiment: Inhibition of a panel of kinases, in vitro HotSpot kinase assay: TXK; conditions: Table 15, C compounds; 1 μM ATP
T1 sequence (P42681 1-527): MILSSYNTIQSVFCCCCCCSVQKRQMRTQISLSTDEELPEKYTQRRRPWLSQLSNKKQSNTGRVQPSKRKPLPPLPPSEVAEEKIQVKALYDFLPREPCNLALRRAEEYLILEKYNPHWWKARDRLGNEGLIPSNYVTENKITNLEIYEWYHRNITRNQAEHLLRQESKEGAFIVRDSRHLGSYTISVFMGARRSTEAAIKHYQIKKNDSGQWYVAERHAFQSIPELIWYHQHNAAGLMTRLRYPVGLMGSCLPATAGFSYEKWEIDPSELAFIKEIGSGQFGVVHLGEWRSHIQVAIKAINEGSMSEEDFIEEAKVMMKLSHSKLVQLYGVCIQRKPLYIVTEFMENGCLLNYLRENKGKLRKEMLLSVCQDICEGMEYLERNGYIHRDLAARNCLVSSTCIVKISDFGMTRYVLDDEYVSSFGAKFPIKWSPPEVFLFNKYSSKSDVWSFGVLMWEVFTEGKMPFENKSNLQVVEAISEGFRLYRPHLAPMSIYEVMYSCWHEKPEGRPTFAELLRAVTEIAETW
Method: (§1) The degree of inhibition of a panel of kinases is determined using the in vitro HotSpot kinase assay (purified enzymes, ^33P-ATP, an appropriate substrate and 1 μM ATP).

[2] = biological target: T2, TEC (Homo sapiens, UniProt P42680); experiment: Inhibition of a panel of kinases, in vitro HotSpot kinase assay: TEC; conditions: Table 15, C compounds; 1 μM ATP
T2 sequence (P42680 1-631): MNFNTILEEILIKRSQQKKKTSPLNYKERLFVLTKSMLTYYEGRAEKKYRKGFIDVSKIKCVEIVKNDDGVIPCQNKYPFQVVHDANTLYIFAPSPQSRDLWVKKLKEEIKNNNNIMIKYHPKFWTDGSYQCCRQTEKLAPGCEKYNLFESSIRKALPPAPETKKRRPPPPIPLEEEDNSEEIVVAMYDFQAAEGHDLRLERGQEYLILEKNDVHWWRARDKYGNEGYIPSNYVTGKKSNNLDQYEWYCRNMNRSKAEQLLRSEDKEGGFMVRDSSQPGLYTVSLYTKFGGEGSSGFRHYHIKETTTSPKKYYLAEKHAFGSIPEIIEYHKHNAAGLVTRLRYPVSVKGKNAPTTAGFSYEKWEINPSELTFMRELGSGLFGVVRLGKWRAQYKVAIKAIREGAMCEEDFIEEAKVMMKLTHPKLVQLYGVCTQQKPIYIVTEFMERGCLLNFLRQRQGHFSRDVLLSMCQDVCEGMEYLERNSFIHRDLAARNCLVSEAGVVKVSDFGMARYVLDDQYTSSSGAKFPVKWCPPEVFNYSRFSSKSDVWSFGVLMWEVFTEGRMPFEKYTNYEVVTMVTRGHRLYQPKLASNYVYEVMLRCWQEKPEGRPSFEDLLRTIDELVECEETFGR
Method: as §1

[3] = biological target: T3, ITK (Homo sapiens, UniProt Q08881); experiment: Inhibition of a panel of kinases, in vitro HotSpot kinase assay: ITK; conditions: Table 15, C compounds; 1 μM ATP
T3 sequence (Q08881 1-620): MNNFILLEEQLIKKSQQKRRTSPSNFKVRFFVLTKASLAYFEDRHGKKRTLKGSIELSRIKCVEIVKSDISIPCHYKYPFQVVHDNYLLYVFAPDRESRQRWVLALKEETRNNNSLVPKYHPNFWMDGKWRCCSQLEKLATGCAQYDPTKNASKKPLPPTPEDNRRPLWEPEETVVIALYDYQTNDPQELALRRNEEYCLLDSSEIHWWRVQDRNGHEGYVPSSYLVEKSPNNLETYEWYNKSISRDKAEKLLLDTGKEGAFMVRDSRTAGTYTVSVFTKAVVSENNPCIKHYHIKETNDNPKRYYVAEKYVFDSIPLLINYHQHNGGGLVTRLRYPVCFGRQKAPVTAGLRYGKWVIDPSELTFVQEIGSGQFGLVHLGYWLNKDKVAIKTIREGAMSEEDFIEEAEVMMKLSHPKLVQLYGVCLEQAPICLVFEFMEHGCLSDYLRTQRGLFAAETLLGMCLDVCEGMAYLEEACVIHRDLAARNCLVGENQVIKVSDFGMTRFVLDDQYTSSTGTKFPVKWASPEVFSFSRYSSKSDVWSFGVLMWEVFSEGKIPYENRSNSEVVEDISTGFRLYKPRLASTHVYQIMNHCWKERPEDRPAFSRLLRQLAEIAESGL
Method: as §1

[4] = biological target: EGFR (Homo sapiens, UniProt P00533); experiment: Inhibition of a panel of kinases, in vitro HotSpot kinase assay: EGFR; conditions: Table 15, C compounds; 1 μM ATP
Method: as §1

[5] = biological target: T4, BTK-WT (Homo sapiens, UniProt Q06187); experiment: Btk in vitro inhibitory activity (one of Method A TR-FRET, Method B electrophoretic mobility shift, Method C radiometric filter binding); conditions: Table 15, C compounds; read-out: IC50 BTK-WT
T4 construct: purified from insect cells as a full-length construct containing an N-terminal 6X-His tag; His6 (N); made in house; host or cells: insect cells (baculovirus Sf21 in Method B)
T4 sequence (Q06187 whole entry): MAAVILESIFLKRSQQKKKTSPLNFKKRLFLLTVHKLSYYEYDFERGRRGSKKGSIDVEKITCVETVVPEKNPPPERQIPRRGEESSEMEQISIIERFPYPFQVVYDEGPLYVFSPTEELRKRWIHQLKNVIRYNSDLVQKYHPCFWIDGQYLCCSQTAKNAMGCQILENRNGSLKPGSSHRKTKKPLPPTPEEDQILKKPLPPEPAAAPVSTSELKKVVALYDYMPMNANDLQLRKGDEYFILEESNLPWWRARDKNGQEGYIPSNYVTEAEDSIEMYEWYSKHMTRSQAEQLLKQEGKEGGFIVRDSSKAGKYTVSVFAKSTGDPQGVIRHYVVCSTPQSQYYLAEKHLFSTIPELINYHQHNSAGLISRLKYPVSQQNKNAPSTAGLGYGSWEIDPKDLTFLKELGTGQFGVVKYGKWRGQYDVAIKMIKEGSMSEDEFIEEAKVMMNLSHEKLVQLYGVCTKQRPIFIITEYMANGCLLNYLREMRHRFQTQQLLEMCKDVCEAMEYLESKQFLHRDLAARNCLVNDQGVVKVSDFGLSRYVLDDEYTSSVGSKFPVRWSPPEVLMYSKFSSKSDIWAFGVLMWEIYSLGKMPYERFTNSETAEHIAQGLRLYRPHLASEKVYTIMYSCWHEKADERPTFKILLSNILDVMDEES

EGFR, sequence (P00533 25-1210): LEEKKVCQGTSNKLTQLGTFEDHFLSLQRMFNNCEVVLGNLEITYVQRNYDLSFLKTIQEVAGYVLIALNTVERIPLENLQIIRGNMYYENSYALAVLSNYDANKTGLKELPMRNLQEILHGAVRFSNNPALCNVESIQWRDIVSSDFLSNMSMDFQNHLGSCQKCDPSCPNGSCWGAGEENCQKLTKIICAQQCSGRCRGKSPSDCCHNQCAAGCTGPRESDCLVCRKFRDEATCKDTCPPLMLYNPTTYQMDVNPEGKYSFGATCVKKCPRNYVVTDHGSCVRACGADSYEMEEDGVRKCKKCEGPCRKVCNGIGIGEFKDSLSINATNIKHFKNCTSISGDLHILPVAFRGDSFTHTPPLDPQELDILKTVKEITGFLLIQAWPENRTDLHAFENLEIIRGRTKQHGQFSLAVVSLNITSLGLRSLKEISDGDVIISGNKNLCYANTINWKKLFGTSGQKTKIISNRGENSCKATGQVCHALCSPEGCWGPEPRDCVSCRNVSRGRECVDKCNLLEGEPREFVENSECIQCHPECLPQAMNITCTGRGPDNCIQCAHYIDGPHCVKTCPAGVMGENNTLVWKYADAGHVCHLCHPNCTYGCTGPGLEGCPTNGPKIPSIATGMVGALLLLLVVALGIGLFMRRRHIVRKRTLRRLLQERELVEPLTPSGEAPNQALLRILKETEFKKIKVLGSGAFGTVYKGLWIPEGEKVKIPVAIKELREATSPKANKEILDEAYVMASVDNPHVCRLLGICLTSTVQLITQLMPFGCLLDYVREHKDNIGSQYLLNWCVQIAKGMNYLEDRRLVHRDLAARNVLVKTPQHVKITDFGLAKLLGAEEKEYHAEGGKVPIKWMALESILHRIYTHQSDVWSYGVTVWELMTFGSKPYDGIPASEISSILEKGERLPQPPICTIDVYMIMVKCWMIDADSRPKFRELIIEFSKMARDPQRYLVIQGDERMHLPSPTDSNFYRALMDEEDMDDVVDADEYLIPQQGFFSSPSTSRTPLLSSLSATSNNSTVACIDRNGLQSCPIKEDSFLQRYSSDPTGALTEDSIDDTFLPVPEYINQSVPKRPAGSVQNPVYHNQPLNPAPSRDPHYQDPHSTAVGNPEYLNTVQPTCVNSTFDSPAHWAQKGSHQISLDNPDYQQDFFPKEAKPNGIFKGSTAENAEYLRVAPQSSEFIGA

SMILES	IC50 [1] [nM]	IC50 [2] [nM]	IC50 [3] [nM]	IC50 [4] [nM]	IC50 [5] [nM]
C=CC(=O)N1CCC[C@@H](Nc2nnc(C(N)=O)c(Nc3ccc(-c4ncco4)cc3)n2)C1 [Example C-51, (R)-3-(1-acryloylpiperidin-3-ylamino)-5-(4-(oxazol-2-yl)phenylamino)-1,2,4-triazine-6-carboxamide]	≤ 10	≤ 10	10 to 100	≤ 10	≤ 10
C=CC(=O)N1CCC[C@@H](Nc2nnc(C(N)=O)c(Nc3ccc(C4(C#N)CCCC4)cc3)n2)C1 [Example C-58, (R)-3-(1-acryloylpiperidin-3-ylamino)-5-(4-(1-cyanocyclopentyl)phenylamino)-1,2,4-triazine-6-carboxamide]	≤ 10	≤ 10	≤ 10	≤ 10	≤ 10
C=CC(=O)N1CCC[C@@H](Nc2nnc(C(N)=O)c(Nc3ccc(S(C)(=O)=O)cc3)n2)C1 [Example C-59, (R)-3-(1-acryloylpiperidin-3-ylamino)-5-(4-(methylsulfonyl)phenyl-amino)-1,2,4-triazine-6-carboxamide]	≤ 10	≤ 10	≤ 10	≤ 10	≤ 10
C=CC(=O)N1CCC[C@@H](Nc2nnc(C(N)=O)c(Nc3cncc(F)c3)n2)C1 [Example C-69, (R)-3-(1-acryloylpiperidin-3-ylamino)-5-(5-fluoropyridin-3-ylamino)-1,2,4-triazine-6-carboxamide]	≤ 10	≤ 10	100 to 1000		≤ 10
C=CC(=O)N1CCC[C@@H](Nc2nnc(C(N)=O)c(Nc3cnc4ccccc4c3)n2)C1 [Example C-70, (R)-3-(1-acryloylpiperidin-3-ylamino)-5-(quinolin-3-ylamino)-1,2,4-triazine-6-carboxamide]	≤ 10	≤ 10	10 to 100		≤ 10
C=CC(=O)N1CCC[C@@H](Nc2nnc(C(N)=O)c(Nc3cccc(-c4ncccn4)c3)n2)C1 [Example C-71, (R)-3-(1-acryloylpiperidin-3-ylamino)-5-(3-(pyrimidin-2-yl)phenylamino)-1,2,4-triazine-6-carboxamide]	≤ 10	≤ 10	10 to 100	10 to 100	≤ 10
C=CC(=O)N1CCC[C@@H](Nc2nnc(C(N)=O)c(Nc3ccc(CN(C(=O)OCc4ccccc4)[C@@H](C)C(C)(C)C)cc3)n2)C1 [Example C-72, benzyl 4-(3-((R)-1-acryloylpiperidin-3-ylamino)-6-carbamoyl-1,2,4-triazin-5-ylamino)benzyl((S)-3,3-dimethylbutan-2-yl)carbamate]	10 to 100	≤ 10	10 to 100		≤ 10
C=CC(=O)N1CCC[C@@H](Nc2nnc(C(N)=O)c(Nc3cccc(-n4nccn4)c3)n2)C1 [Example C-75, (R)-5-(3-(2H-1,2,3-triazol-2-yl)phenylamino)-3-(1-acryloylpiperidin-3-ylamino)-1,2,4-triazine-6-carboxamide]	≤ 10	≤ 10	10 to 100	10 to 100	≤ 10
C=CC(=O)N1CCC[C@@H](Nc2nnc(C(N)=O)c(Nc3ccc(N4CCOCC4=O)cc3)n2)C1 [Example C-76, (R)-3-(1-acryloylpiperidin-3-ylamino)-5-(4-(3-oxomorpholino)phenyl-amino)-1,2,4-triazine-6-carboxamide]	≤ 10	≤ 10	≤ 10	10 to 100	≤ 10
C=CC(=O)N1CCC[C@@H](Nc2nnc(C(N)=O)c(Nc3ccc(-c4nccs4)cc3)n2)C1 [Example C-77, (R)-3-(1-acryloylpiperidin-3-ylamino)-5-(4-(thiazol-2-yl)phenylamino)-1,2,4-triazine-6-carboxamide]	≤ 10	≤ 10	10 to 100	≤ 10	≤ 10
C=CC(=O)N1CCC[C@@H](Nc2nnc(C(N)=O)c(Nc3ccc(-c4nn[nH]n4)cc3)n2)C1 [Example C-78, (R)-5-(4-(2H-tetrazol-5-yl)phenylamino)-3-(1-acryloylpiperidin-3-ylamino)-1,2,4-triazine-6-carboxamide]	≤ 10	≤ 10	10 to 100	≤ 10	≤ 10
C=CC(=O)N1CCC[C@@H](Nc2nnc(C(N)=O)c(Nc3cccc(-c4ncco4)c3)n2)C1 [Example C-79, (R)-3-(1-acryloylpiperidin-3-ylamino)-5-(3-(oxazol-2-yl)phenylamino)-1,2,4-triazine-6-carboxamide]	≤ 10	≤ 10	10 to 100		≤ 10
C=CC(=O)N1CCC[C@@H](Nc2nnc(C(N)=O)c(Nc3ccc4c(cnn4CC)c3)n2)C1 [Example C-80, (R)-3-(1-acryloylpiperidin-3-ylamino)-5-(1-ethyl-1H-indazol-5-ylamino)-1,2,4-triazine-6-carboxamide]	≤ 10	≤ 10	≤ 10		≤ 10
C=CC(=O)N1CCC[C@@H](Nc2nnc(C(N)=O)c(Nc3ccc(-n4nccn4)cc3)n2)C1 [Example C-81, (R)-5-(4-(2H-1,2,3-triazol-2-yl)phenylamino)-3-(1-acryloylpiperidin-3-ylamino)-1,2,4-triazine-6-carboxamide]	≤ 10	≤ 10	10 to 100		≤ 10
C=CC(=O)N1CCC[C@@H](Nc2nnc(C(N)=O)c(Nc3ccc4ncccc4c3)n2)C1 [Example C-82, (R)-3-(1-acryloylpiperidin-3-ylamino)-5-(quinolin-6-ylamino)-1,2,4-triazine-6-carboxamide]	≤ 10	≤ 10	≤ 10		≤ 10
C=CC(=O)N1CCC[C@@H](Nc2nnc(C(N)=O)c(Nc3ccc(-n4cncn4)cc3)n2)C1 [Example C-83, (R)-5-(4-(1H-1,2,4-triazol-1-yl)phenylamino)-3-(1-acryloylpiperidin-3-ylamino)-1,2,4-triazine-6-carboxamide]	≤ 10	≤ 10	10 to 100		≤ 10
